Assay results published in the supplement of paper PMC10307832.

Experiments:
Test in all cases: relative viability (nuclei count vs DMSO), 5 days (fraction); higher = more cells survive
[1] = compound: COc1cc2nccc(Oc3ccc(NC(=O)C4(C(=O)Nc5ccc(F)cc5)CC4)cc3)c2cc1OC [Cabozantinib] + C[C@]1(O)C[C@@H](c2nc(-c3ccc4ccc(-c5ccccc5)nc4c3)c3c(N)nccn32)C1 [Linsitinib] (partner 1 µM)
How it was run: (§1)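 Lung cancer cell lines were seeded in 1536-well plates and dosed by pin tool the next day, with either a single drug or a fixed anchor-drug dose combined with five library-drug doses (not always all listed) spaced in √10 steps. Five days later, one step fixed the cells and stained their nuclei (final 0.05% Triton X-100, 1% formaldehyde, 1 ug/ml Hoechst), and nuclei were counted on 4× images. Relative viability is the nuclei count in treated wells divided by the count in vehicle wells, and each value is the median of duplicate plates.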

Zosuquidar + Luminespib = compound: O[C@@H](COc1cccc2ncccc12)CN1CCN([C@@H]2c3ccccc3[C@@H]3[C@H](c4ccccc42)C3(F)F)CC1 [Zosuquidar] + CCNC(=O)c1noc(-c2cc(C(C)C)c(O)cc2O)c1-c1ccc(CN2CCOCC2)cc1 [Luminespib] (partner 0.01 µM)
How it was run: as §1

Zosuquidar + OSI-027 = compound: O[C@@H](COc1cccc2ncccc12)CN1CCN([C@@H]2c3ccccc3[C@@H]3[C@H](c4ccccc42)C3(F)F)CC1 [Zosuquidar] + COc1cccc2cc(-c3nc([C@H]4CC[C@H](C(=O)O)CC4)n4ncnc(N)c34)[nH]c12 [OSI-027] (partner 0.5 µM)
How it was run: as §1

Zosuquidar + Pemetrexed = compound: O[C@@H](COc1cccc2ncccc12)CN1CCN([C@@H]2c3ccccc3[C@@H]3[C@H](c4ccccc42)C3(F)F)CC1 [Zosuquidar] + Nc1nc2[nH]cc(CCc3ccc(C(=O)N[C@@H](CCC(=O)O)C(=O)O)cc3)c2c(=O)[nH]1 [Pemetrexed] (partner 0.2 µM)
How it was run: as §1

| Cell Line | relative viability ([1]; first compound 0.02 µM) | relative viability ([1]; first compound 0.06325 µM) | relative viability ([1]; first compound 0.2 µM) | relative viability ([1]; first compound 0.6325 µM) | relative viability ([1]; first compound 2 µM) | relative viability (Zosuquidar + Luminespib; first compound 0.01 µM) | relative viability (Zosuquidar + Luminespib; first compound 0.03162 µM) | relative viability (Zosuquidar + Luminespib; first compound 0.1 µM) | relative viability (Zosuquidar + Luminespib; first compound 0.3162 µM) | relative viability (Zosuquidar + Luminespib; first compound 1 µM) | relative viability (Zosuquidar + OSI-027; first compound 0.01 µM) | relative viability (Zosuquidar + OSI-027; first compound 0.03162 µM) | relative viability (Zosuquidar + OSI-027; first compound 0.1 µM) | relative viability (Zosuquidar + OSI-027; first compound 0.3162 µM) | relative viability (Zosuquidar + OSI-027; first compound 1 µM) | relative viability (Zosuquidar + Pemetrexed; first compound 0.01 µM) | relative viability (Zosuquidar + Pemetrexed; first compound 0.03162 µM) | relative viability (Zosuquidar + Pemetrexed; first compound 0.1 µM) | relative viability (Zosuquidar + Pemetrexed; first compound 0.3162 µM) | relative viability (Zosuquidar + Pemetrexed; first compound 1 µM) |
| --- | --- | --- | --- | --- | --- | --- | --- | --- | --- | --- | --- | --- | --- | --- | --- | --- | --- | --- | --- | --- |
| 201T | 1.08 | 1.04 | 0.993 | 1.01 | 0.973 | 1.02 | 1 | 0.961 | 1.12 | 1.04 | 0.777 | 0.722 | 0.646 | 0.803 | 0.741 | 0.315 | 0.334 | 0.35 | 0.322 | 0.334 |
| A549 | 0.621 | 0.641 | 0.481 | 0.534 | 0.373 |  |  |  |  |  |  |  |  |  |  |  |  |  |  |  |
| A-427 | 1.12 | 1.1 | 1.08 | 1.1 | 1.13 | 1.15 | 0.963 | 0.749 | 1.13 | 0.756 | 0.409 | 0.511 | 0.4 | 0.507 | 0.501 | 1.01 | 0.996 | 0.806 | 1.02 | 0.796 |
| ABC-1 | 0.719 | 0.816 | 0.81 | 0.87 | 0.754 | 0.682 | 0.742 | 0.748 | 0.603 | 0.474 | 0.479 | 0.426 | 0.607 | 0.54 | 0.509 |  |  |  |  |  |
| BEN | 0.906 | 0.993 | 0.974 | 0.795 | 0.597 | 0.374 | 0.218 | 0.381 | 0.274 | 0.329 | 0.31 | 0.297 | 0.288 | 0.301 | 0.313 | 0.75 | 0.738 | 0.476 | 1.05 | 0.684 |
| CAL-12T | 0.861 | 0.874 | 0.87 | 0.786 | 0.816 | 0.443 | 0.575 | 0.513 | 0.221 | 0.504 | 0.715 | 0.867 | 0.478 | 0.951 | 0.562 | 1.08 | 1.15 | 0.983 | 1.23 | 1.1 |
| Calu-6 | 1.06 | 0.975 | 1.01 | 0.871 | 0.881 |  |  |  |  |  |  |  |  |  |  |  |  |  |  |  |
| ChaGo-K-1 |  |  |  |  |  | 0.714 | 0.625 | 0.652 | 0.578 | 0.512 | 0.595 | 0.479 | 0.644 | 0.553 | 0.522 | 0.266 | 0.255 | 0.263 | 0.266 | 0.26 |
| EBC-1 | 1.04 | 0.942 | 0.432 | 0.121 | 0.116 |  |  |  |  |  |  |  |  |  |  |  |  |  |  |  |
| HCC-78 | 0.428 | 0.423 | 0.194 | 0.261 | 0.193 |  |  |  |  |  | 0.346 | 0.356 |  | 0.422 | 0.294 | 0.92 |  |  | 0.906 | 0.827 |
| HCC-366 | 0.772 | 0.649 | 0.703 | 0.637 | 0.554 |  |  |  |  |  | 0.911 | 1.09 | 0.845 | 1.19 | 0.956 | 0.177 | 0.155 | 0.147 | 0.145 | 0.184 |
| IA-LM | 0.704 | 0.689 | 0.683 | 0.559 | 0.696 |  |  |  |  |  |  |  |  |  |  |  |  |  |  |  |
| NCI-H522 |  |  |  |  |  | 1.08 | 1.19 | 1.23 | 0.965 | 1.28 | 0.714 | 0.58 | 0.756 | 0.898 | 0.857 | 0.958 | 0.897 | 0.968 | 0.843 | 1.17 |
| NCI-H727 | 0.323 | 0.231 | 0.282 | 0.22 | 0.309 | 0.23 | 0.344 | 0.434 | 0.427 | 0.431 | 0.622 | 0.538 | 0.343 | 0.783 | 0.705 |  |  |  |  |  |
| NCI-H1299 | 1.03 | 1 | 0.982 | 0.96 | 0.966 |  |  |  |  |  |  |  |  |  |  |  |  |  |  |  |
| NCI-H1623 |  |  |  |  |  | 0.371 | 0.511 | 0.539 | 0.451 | 0.476 | 0.432 | 0.464 | 0.421 | 0.441 | 0.43 |  |  |  |  |  |
| NCI-H1648 |  |  |  |  |  |  |  |  |  |  | 0.243 |  | 0.234 | 0.288 | 0.245 | 1.57 | 0.99 | 0.568 | 0.717 | 0.627 |
| NCI-H1650 |  |  |  |  |  | 0.178 | 0.183 | 0.204 | 0.203 | 0.202 | 0.737 | 0.607 | 0.601 | 0.759 | 0.669 | 0.378 | 0.373 | 0.327 | 0.479 | 0.401 |
| NCI-H1703 | 0.601 | 0.35 | 0.287 | 0.165 | 0.146 |  |  |  |  |  |  |  |  |  |  |  |  |  |  |  |
| NCI-H2170 |  |  |  |  |  | 0.663 | 0.716 | 0.599 | 0.92 | 0.582 | 0.701 | 0.731 | 0.641 | 0.743 | 0.713 | 0.283 | 0.263 | 0.263 | 0.269 | 0.255 |
| NCI-H2342 |  |  |  |  |  | 0.753 | 0.591 | 0.605 | 0.644 | 0.845 | 0.605 | 0.597 | 0.558 | 0.668 | 0.624 | 0.682 | 0.785 | 0.649 | 0.899 | 0.818 |
| SW 900 |  |  |  |  |  | 0.172 | 0.171 | 0.181 | 0.198 | 0.172 | 0.676 | 0.507 | 0.493 | 0.646 | 0.706 | 0.497 | 0.485 |  | 0.514 | 0.498 |
